{
  "source": "patent US20050226908A1",
  "about": "“Efficacious composition of a benzimidazole, an avermectin and praziquantel and related methods of use” (Akzo Nobel N.V., priority 2004, published 2005)",
  "origin": "cited, not measured here",
  "system": "parasites",
  "details": "fenbendazole alone, one time treatment at 100 or 150 mg/kg; JAVMA 180, 1:53 (1982) and Am J Vet Res 39, 11:1799 (1978)",
  "data": [
    {"smiles": "COC(=O)Nc1nc2ccc(Sc3ccccc3)cc2[nH]1", "note": "[fenbendazole]", "values": [
      {"measurement": "Efficacy of one time treatment", "value": "not efficacious"}
    ]}
  ]
}
